The target of test [1] is T1, Lysine-specific demethylase 4A (Homo sapiens, UniProt O75164).
T1 sequence (O75164 whole entry): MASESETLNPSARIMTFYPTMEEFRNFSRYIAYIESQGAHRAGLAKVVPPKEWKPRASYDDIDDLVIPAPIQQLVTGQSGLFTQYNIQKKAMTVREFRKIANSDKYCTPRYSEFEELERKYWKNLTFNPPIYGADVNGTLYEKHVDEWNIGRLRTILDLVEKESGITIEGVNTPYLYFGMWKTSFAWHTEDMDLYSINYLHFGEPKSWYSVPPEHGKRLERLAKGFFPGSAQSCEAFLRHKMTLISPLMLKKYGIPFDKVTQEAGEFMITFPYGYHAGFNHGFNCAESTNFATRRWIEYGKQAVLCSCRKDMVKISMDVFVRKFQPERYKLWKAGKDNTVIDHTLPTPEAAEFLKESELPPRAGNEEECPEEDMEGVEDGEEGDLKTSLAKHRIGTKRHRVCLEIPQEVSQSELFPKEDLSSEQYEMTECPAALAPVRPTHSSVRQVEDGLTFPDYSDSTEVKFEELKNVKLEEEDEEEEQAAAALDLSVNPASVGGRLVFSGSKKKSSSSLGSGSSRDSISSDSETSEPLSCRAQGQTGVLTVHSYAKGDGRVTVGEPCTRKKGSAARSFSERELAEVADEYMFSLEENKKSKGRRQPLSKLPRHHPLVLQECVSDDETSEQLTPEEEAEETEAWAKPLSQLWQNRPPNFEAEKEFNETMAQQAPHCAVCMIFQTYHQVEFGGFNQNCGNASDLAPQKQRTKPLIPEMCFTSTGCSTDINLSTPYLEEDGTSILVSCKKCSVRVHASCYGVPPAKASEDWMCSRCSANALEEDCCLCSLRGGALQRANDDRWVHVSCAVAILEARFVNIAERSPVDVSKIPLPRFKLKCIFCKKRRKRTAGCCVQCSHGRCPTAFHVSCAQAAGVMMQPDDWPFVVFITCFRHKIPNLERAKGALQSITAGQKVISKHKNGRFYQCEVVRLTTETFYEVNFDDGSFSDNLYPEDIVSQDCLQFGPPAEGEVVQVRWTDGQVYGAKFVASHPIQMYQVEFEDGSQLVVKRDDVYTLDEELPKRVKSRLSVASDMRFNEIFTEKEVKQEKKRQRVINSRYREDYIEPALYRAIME
Briefly: (§1) Binding affinity to thrombin cleavable N-terminal 6His-tagged and 13C-IVLM labeled human KDM4A tandem TUDOR domain (897 to 1011 residues) expressed in Escherichia coli BL21(DE3)-T1R at 1 mM by 13C HSQC NMR spectroscopy.

In test [2] the target is T1, Lysine-specific demethylase 4A. In words: Inhibition of NanoLuc-KDM4A-TUDOR domain (unknown origin) binding to Histone H3.3-HaloTag expressed in 293T cells incubated for 18 hrs by Nano-BRET based target engagement assay. It is filed as cell-based.
Test [3] has the same target. Briefly: Binding affinity to thrombin cleavable N-terminal 6His tagged and 13C-IVLM labeled human KDM4A tandem TUDOR domain (897 to 1011 residues) expressed in Escherichia coli BL21(DE3)-T1R by ITC method. (In general: Isothermal titration calorimetry measures the heat released or taken up as one component is titrated into another.)
Test [4] deals with T2, Lysine-specific demethylase 4A (Homo sapiens) (UniProt O75164).
T2 sequence (whole entry): T1 sequence (O75164 whole entry)
Described as §1.

Each structure is given as a SMILES string. The source made the active and inactive calls. No cut-off for these calls is given here. Square brackets hold non-standard residues; d marks the D form. Peptide text beside a SMILES is read from it. Lys(Me3) = C[N+](C)(C)CCCC[C@H](N)C(=O)O

Usually Kd stands for the equilibrium constant for the complex coming apart. A high value points to weaker binding. Regarding `CN(C)CC1C2CCC(c3ccccc3)(C2)C1O` (stereo not given), in test [1], the affinity, expressed as Kd, was 80 µM. In general, EC50 refers to the concentration needed to bring the measured effect to its halfway point. Low values mean higher potency in that assay, high ones lower potency in that assay. In the case of `CN(C)C[C@@H]1C2CCC(c3ccccc3)(C2)[C@@H]1O` (stereo not given in full), the EC50 in test [2] stood at 1220 µM.

As to `CC(C)C[C@H](NC(=O)[C@@H](NC(=O)[C@H](CCCC[N+](C)(C)C)NC(=O)[C@H](CCCNC(=N)N)NC(=O)[C@H](Cc1cnc[nH]1)NC(=O)[C@H](CCCNC(=N)N)NC(=O)[C@@H](N)CCCCN)C(C)C)C(=O)N[C@@H](CCCNC(=N)N)C(=O)N[C@@H](CC(=O)O)C(=O)N[C@@H](CC(N)=O)C(=O)O` (H-KRHR[Lys(Me3)]VLRDN-OH), in test [3], the Kd was 4.7 µM. In test [3], `C[C@H](N)C(=O)N[C@@H](CCCNC(=N)N)C(=O)N[C@H](C(=O)N[C@@H](CCCC[N+](C)(C)C)C(=O)N[C@@H](CCC(N)=O)C(=O)N[C@H](C(=O)N[C@@H](C)C(=O)N[C@@H](CCCNC(=N)N)C(=O)N[C@@H](CCCCN)C(=O)N[C@@H](CO)C(=O)O)[C@@H](C)O)[C@@H](C)O` displayed a Kd of 3 µM. For the same compound, the result in test [4] was Active.

Source of the values: ChEMBL document CHEMBL4190382, “Targeting lysine specific demethylase 4A (KDM4A) tandem TUDOR domain - A fragment based approach” (Bioorg Med Chem Lett, 2018).
